# From US8609700B2, “Pyridine compounds for controlling invertebrate pests I” (BASF SE, priority 2010, dated 2013)
# Experiments:
# Assay type in all cases: in vivo
# [1] = test system: Silverleaf Whitefly (Bemisia argentifolii, Adult); experiment: Silverleaf whitefly, cotton plants sprayed; details: 300 ppm, 3 days after treatment
# Experimental: II.8 Silverleaf Whitefly (Bemisia argentifolii, Adult)
# The active compounds were formulated in cyclohexanone as a 10,0000 ppm solution supplied in 1.3 ml ABgene® tubes. These tubes were inserted into an automated electrostatic sprayer equipped with an atomizing nozzle and they served as stock solutions for which lower dilutions were made in 50% acetone:50% water (vol/vol). A nonionic surfactant (Kinetic®) was included in the solution at a volume of 0.01% (vol/vol).
# Cotton plants at the cotyledon stage (one plant per pot) were sprayed by an automated electrostatic plant sprayer equipped with an atomizing spray nozzle. The plants were dried in the sprayer fume hood and then removed from the sprayer. Each pot was placed into a plastic cup and 10 to 12 whitefly adults (approximately 3-5 days old) were introduced. The insects were collected using an aspirator and 0.6 cm, nontoxic Tygon® tubing (R-3603) connected to a barrier pipette tip. The tip, containing the collected insects, was then gently inserted into the soil containing the treated plant, allowing insects to crawl out of the tip to reach the foliage for feeding. Cups were covered with a reusable screened lid (150-micron mesh polyester screen PeCap from Tetko, Inc.). […] Mortality was assessed 3 days after treatment, compared to untreated control plants.
# [2] = test system: Brown Planthopper (Nilaparvata lugens); experiment: Brown planthopper, rice seedlings sprayed; details: 500 ppm, after 72 hours
# Experimental: II.7 Activity Against Brown Planthopper (Nilaparvata lugens)
# The active compounds were formulated as a 50:50 (vol/vol) acetone:water solution. Surfactant (Alkamuls EL 620) was added at the rate of 0.1% (vol/vol).
# Rice seedlings were cleaned and washed 24 h before spraying. Potted rice seedlings were sprayed with 5 ml test solution, air dried, placed in cages and inoculated with 10 adults. Treated rice plants were kept at 28-29° C. and relative humidity of 50-60%. Percent mortality was recorded after 72 hours.
# [3] = test system: Cotton Aphid (Aphis gossypii, Mixed Life Stages); experiment: Cotton aphid, method b) (electrostatic sprayer); details: 300 ppm; infested cotton plants sprayed; after 5 days
# Experimental: II.1 Cotton Aphid (Aphis gossypii, Mixed Life Stages)
# The active compounds were formulated in cyclohexanone as a 10,0000 ppm solution supplied in 1.3 ml ABgene® tubes. These tubes were inserted into an automated electrostatic sprayer equipped with an atomizing nozzle and they served as stock solutions for which lower dilutions were made in 50% acetone:50% water (vol/vol). A nonionic sur25 factant (Kinetic®) was included in the solution at a volume of 0.01% (vol/vol).
# Cotton plants at the cotyledon stage were infested with aphids prior to treatment by placing a heavily infested leaf from the main aphid colony on top of each cotyledon. Aphids were allowed to transfer overnight to accomplish an infestation of 80-100 aphids per plant and the host leaf was removed. The infested plants were then sprayed by an automated electrostatic plant sprayer equipped with an atomizing spray nozzle. The plants were dried in the sprayer fume hood, removed from the sprayer, and then maintained in a growth room under fluorescent lighting in a 24-hr photoperiod at 25° C. and 20-40% relative humidity. Aphid mortality on the treated plants, relative to mortality on untreated control plants, was determined after 5 days.
# [4] = test system: Boll Weevil (Anthonomus grandis); experiment: Boll weevil, insect diet in 24-well-microtiter plates; details: 120 h, test solution 2500 mg/L, sprayed onto insect diet, 5 days, read-out: mortality (egg and larval)
# Experimental: II.5 Boll Weevil (Anthonomus grandis)
# The compounds were formulated in 75:25 (vol/vol) water:DMSO.
# For evaluating control of boll weevil (Anthonomus grandis) the test unit consisted of 24-well-microtiter plates containing an insect diet and 20-30 A. grandis eggs. Different concentrations of formulated compounds were sprayed onto the insect diet at 20 μl, using a custom built micro atomizer, at two replications. After application, the microtiter plates were incubated at 23±1° C. and 50±5% relative humidity for 5 days. Egg and larval mortality was then visually assessed.
smiles,measurement,setting,value
O=C(Nc1cccnc1)c1sccc1C(F)(F)F [Compound 7],mortality in comparison with untreated controls,[1],at least 75%
CN(C(=O)c1cccn1C)c1cccnc1 [Compound 14],mortality in comparison with untreated controls,[2],at least 50%
O=C(Nc1cccnc1)c1cscc1C(F)(F)F [Compound 26],mortality in comparison with untreated controls,[3],at least 75%
"CN(C(=O)c1cc(Cl)sc1Cl)c1cccnc1 [Compound 28, 2,5-Dichloro-thiophene-3-carboxylic acid methyl-pyridin-3-yl-amide]",mortality at 2500 µg/mL,[4],≥ 50%
